The target of this experiment is T1, human V1a receptor (Homo sapiens, UniProt P37288).
T1 construct: expressed in transfected cells; host or cells: HEK293 cells, transiently transfected; cell membranes
T1 sequence (P37288 whole entry): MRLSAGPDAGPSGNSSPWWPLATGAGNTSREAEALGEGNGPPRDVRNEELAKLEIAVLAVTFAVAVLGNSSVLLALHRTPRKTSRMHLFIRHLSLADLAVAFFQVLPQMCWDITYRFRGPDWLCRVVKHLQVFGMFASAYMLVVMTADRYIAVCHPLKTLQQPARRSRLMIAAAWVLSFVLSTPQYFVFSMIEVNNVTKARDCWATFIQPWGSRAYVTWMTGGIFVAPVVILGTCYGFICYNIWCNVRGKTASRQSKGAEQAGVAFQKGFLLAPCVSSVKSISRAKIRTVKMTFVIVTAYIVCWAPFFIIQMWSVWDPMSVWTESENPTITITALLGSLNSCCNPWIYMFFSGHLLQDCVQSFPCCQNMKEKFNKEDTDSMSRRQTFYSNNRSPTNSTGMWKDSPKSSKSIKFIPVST
As to the kind of experiment: human V1a receptor binding (3H-Vasopressin SPA, HEK293 membranes). Particulars: displacement of 4 nM 3H-Vasopressin, membranes of HEK293 cells transiently transfected with human V1a receptor; Ki from IC50 by Cheng-Prussoff. As to the method:
The human V1a receptor was cloned by RT-PCR from total human liver RNA. The coding sequence was subcloned in an expression vector after sequencing to confirm the identity of the amplified sequence. […] Cell membranes were prepared from HEK293 cells transiently transfected with the expression vector and grown in 20 liter fermenters with the following protocol.
50 g cells are resuspended in 30 ml freshly prepared ice cold Lysis buffer (50 mM HEPES, 1 mM EDTA, 10 mM MgCl2 adjusted to pH=7.4+complete cocktail of protease inhibitor (Roche Diagnostics)). The cells are homogenized with Polytron for 1 min and sonicated on ice for 2×2 minutes at 80% intensity (Vibracell sonicator). The preparation is centrifuged 20 min at 500 g at 4° C., the pellet is discarded and the supernatant centrifuged 1 hour at 43,000 g at 4° C. (19,000 rpm). The pellet is resuspended in 12.5 ml Lysis buffer+12.5 ml Sucrose 20% and homogenized using a Polytron for 1-2 min. The protein concentration is determined by the Bradford method and aliquots are stored at −80° C. until use. For binding studies 60 mg Yttrium silicate SPA beads (Amersham) are mixed with an aliquot of membrane in binding buffer (50 mM Tris, 120 mM NaCl, 5 mM KCl, 2 mM CaCl2, 10 mM MgCl2) for 15 minutes with mixing. 50 ul of bead/membrane mixture is then added to each well of a 96 well plate, followed by 50 ul of 4 nM 3H-Vasopressin (American Radiolabeled Chemicals). For total binding measurement 100 ul of binding buffer are added to the respective wells, for non-specific binding 100 ul of […] cold vasopressin and for compound testing 100 ul of a serial dilution of each compound in 2% DMSO. The plate is incubated 1 h at room temperature, centrifuged 1 min at 1000 g and counted on a Packard Top-Count. Non-specific binding counts are subtracted from each well and data is normalized to the maximum specific binding set at 100%. To calculate an IC 50 the curve is fitted using a non-linear regression model (XLfit), and the Ki is calculated using the Cheng-Prussoff equation.
Broadly, the Ki is the dissociation constant of the complex between target and ligand, obtained from inhibition or displacement. Higher therefore signals a looser hold on the target. On to `COc1ccc(Cn2c(C)c(C(=O)N3CCC4(CC3)OCc3ccccc34)c3ccccc32)cc1` [Example 55, 1′-{[1-(4-methoxybenzyl)-2-methyl-1H-indol-3-yl]carbonyl}-3H-spiro[2-benzofuran-1,4′-piperidine]], for which the Ki is 7.9 nM.

The molecule `COc1ccccc1-c1nc(Cn2c(C)c(C(=O)N3CCC4(CC3)OCc3ccccc34)c3ccccc32)c(C)o1` [Example 58, 1′-[(1-{[2-(2-methoxyphenyl)-5-methyl-1,3-oxazol-4-yl]methyl}-2-methyl-1H-indol-3-yl)carbonyl]-3H-spiro[2-benzofuran-1,4′-piperidine]] came in with a Ki of 12.3 nM.

With `O=C(c1cn(Cc2ccccc2)c2ccccc12)N1CCC2(CC1)OCc1ccccc12` [Example 68, 1′-[(1-benzyl-1H-indol-3-yl)carbonyl]-3H-spiro[2-benzofuran-1,4′-piperidine]], the affinity, expressed as Ki, was 6.9 nM.

For the molecule `O=C(c1c[nH]c2cc(Cl)ccc12)N1CCC2(CC1)OCc1ccccc12` [Example 69, 1′-[(6-chloro-1H-indol-3-yl)carbonyl]-3H-spiro[2-benzofuran-1,4′-piperidine]], the Ki was determined as 4.3 nM.

Regarding `CN(C)CCn1cc(C(=O)N2CCC3(CC2)OCc2ccccc23)c2ccccc21` [Example 71, N,N-dimethyl-2-[3-(1′H,3H-spiro[2-benzofuran-1,4′-piperidin]-1′-ylcarbonyl)-1H-indol-1-yl]ethanamine], the affinity corresponds to a Ki of 5.6 nM.

As for `CCC(C)C(=O)c1[nH]c2ccccc2c1C(=O)N1CCC2(CC1)OCc1ccccc12` (centres unmarked) [Example 72, 2-methyl-1-[3-(1′H,3H-spiro[2-benzofuran-1,4′-piperidin]-1′-ylcarbonyl)-1H-indol-2-yl]butan-1-one], the affinity corresponds to a Ki of 2.9 nM.

Molecule `N#CCn1cc(C(=O)N2CCC3(CC2)OCc2ccccc23)c2ccc(Cl)cc21` [Example 76, [6-chloro-3-(1′H,3H-spiro[2-benzofuran-1,4′-piperidin]-1′-ylcarbonyl)-1H-indol-1-yl]acetonitrile] gave a Ki of 1.7 nM.

`O=C(c1c[nH]c2cc(Cl)c(F)cc12)N1CCC2(CC1)COc1ccccc12` [Example 80, 1′-[(6-chloro-5-fluoro-1H-indol-3-yl)carbonyl]spiro[1-benzofuran-3,4′-piperidine]] registered a Ki of 7.4 nM.

Turning to `CN(C)CCn1cc(C(=O)N2CCC3(CC2)COc2ccccc23)c2ccc(Cl)cc21` [Example 81, 2-[6-chloro-3-(1′H-spiro[1-benzofuran-3,4′-piperidin]-1′-ylcarbonyl)-1H-indol-1-yl]-N,N-dimethylethanamine], the affinity, expressed as Ki, was 5 nM.

As for `O=C(c1cn(CCN2CCCC2)c2cc(Cl)ccc12)N1CCC2(CC1)COc1ccccc12` [Example 82, 1′-{[6-chloro-1-(2-pyrrolidin-1-ylethyl)-1H-indol-3-yl]carbonyl}spiro[1-benzofuran-3,4′-piperidine]], the Ki is 12.9 nM.

In turn, `O=C(c1cn(CCN2CCOCC2)c2cc(Cl)ccc12)N1CCC2(CC1)COc1ccccc12` [Example 84, 1′-{[6-chloro-1-(2-morpholin-4-ylethyl)-1H-indol-3-yl]carbonyl}spiro[1-benzofuran-3,4′-piperidine]] returned a Ki of 3.6 nM.

`CCN(CC)CCn1cc(C(=O)N2CCC3(CC2)COc2ccccc23)c2ccc(Cl)cc21` [Example 85, 2-[6-chloro-3-(1′H-spiro[1-benzofuran-3,4′-piperidin]-1′-ylcarbonyl)-1H-indol-1-yl]-N,N-diethylethanamine] displayed a Ki of 10.2 nM. This Ki is about 2.8-fold higher than that of the molecule before.

Turning to `O=C(c1cn(CCn2cccc2)c2cc(Cl)ccc12)N1CCC2(CC1)COc1ccccc12` [Example 86, 1′-({6-chloro-1-[2-(1H-pyrrol-1-yl)ethyl]-1H-indol-3-yl}carbonyl)spiro[1-benzofuran-3,4′-piperidine]], the Ki is 13.2 nM.

For `O=C(Cn1cc(C(=O)N2CCC3(CC2)COc2ccccc23)c2ccc(Cl)cc21)N1CCCCC1` [Example 87, 1′-{[6-chloro-1-(2-oxo-2-piperidin-1-ylethyl)-1H-indol-3-yl]carbonyl}spiro[1-benzofuran-3,4′-piperidine]], affinity was put at a Ki of 3.5 nM. Against the preceding molecule, the Ki is about 3.8-fold lower.

With `O=C(c1cn(Cc2cc(F)cc(F)c2)c2cc(Cl)ccc12)N1CCC2(CC1)CNc1ccccc12` [Example 93], the Ki was 13.8 nM.

`O=C(c1cn(Cc2cccc(F)c2)c2cc(Cl)ccc12)N1CCC2(CC1)CNc1ccccc12` [Example 94]: the Ki amounted to 4.1 nM.

`CCN(CC)C(=O)Cn1cc(C(=O)N2CCC3(CC2)CNc2ccccc23)c2ccc(Cl)cc21` [Example 99, 2-[6-Chloro-3-(1,2-dihydro-1′H-spiro[indole-3,4′-piperidin]-1′-ylcarbonyl)-1H-indol-1-yl]-N,N-diethylacetamide] yielded a Ki of 5.7 nM. This Ki and that of the molecule before are within 1.5-fold of each other.

On to `CN(C)C(=O)Cn1cc(C(=O)N2CCC3(CC2)CNc2ccccc23)c2ccc(Cl)cc21` [Example 100, 2-[6-Chloro-3-(1,2-dihydro-1′H-spiro[indole-3,4′-piperidin]-1′-ylcarbonyl)-1H-indol-1-yl]-N,N-dimethylacetamide], for which the Ki is 3.4 nM. Against the preceding molecule, the Ki is about 1.7-fold lower.

Molecule `O=C(Cn1cc(C(=O)N2CCC3(CC2)CNc2ccccc23)c2ccc(Cl)cc21)c1ccccn1` [Example 101, 2-[6-Chloro-3-(1,2-dihydro-1′H-spiro[indole-3,4′-piperidin]-1′-ylcarbonyl)-1H-indol-1-yl]-1-pyridin-2-ylethanone] yielded an inhibitory constant (Ki) of 27.9 nM.

For the molecule `O=C(c1cn(Cc2cccnc2)c2cc(Cl)ccc12)N1CCC2(CC1)CNc1ccccc12` [Example 102, 1′-{[6-Chloro-1-(pyridin-3-ylmethyl)-1H-indol-3-yl]carbonyl}-1,2-dihydrospiro[indole-3,4′-piperidine]], the Ki came out at 25.1 nM.

On to `O=C1OC2(CCN(C(=O)c3cn(CC(=O)N4CCCCC4)c4cc(Cl)ccc34)CC2)c2ccccc21` [Example 104, 1′-{[6-Chloro-1-(2-oxo-2-piperidin-1-ylethyl)-1H-indol-3-yl]carbonyl}-3H-spiro[2-benzofuran-1,4′-piperidin]-3-one], for which the affinity corresponds to a Ki of 1.3 nM.

Take `O=C1OC2(CCN(C(=O)c3cn(CC(=O)N4CCOCC4)c4cc(Cl)ccc34)CC2)c2ccccc21` [Example 105, 1′-{[6-Chloro-1-(2-morpholin-4-yl-2-oxoethyl)-1H-indol-3-yl]carbonyl}-3H-spiro[2-benzofuran-1,4′-piperidin]-3-one]: the affinity, expressed as Ki, was 2.3 nM. This Ki is about 1.8-fold higher than that of the molecule before.

Take `CN(C)C(=O)Cn1cc(C(=O)N2CCC3(CC2)OC(=O)c2ccccc23)c2ccc(Cl)cc21` [Example 106, 2-{6-Chloro-3-[(3-oxo-1′H,3H-spiro[2-benzofuran-1,4′-piperidin]-1′-yl)carbonyl]-1H-indol-1-yl}-N,N-dimethylacetamide]: the Ki stood at 0.4 nM. Against the preceding molecule, the Ki is about 5.7-fold lower.

Take `CCN(CC)C(=O)Cn1cc(C(=O)N2CCC3(CC2)OC(=O)c2ccccc23)c2ccc(Cl)cc21` [Example 107, 2-{6-Chloro-3-[(3-oxo-1′H,3H-spiro[2-benzofuran-1,4′-piperidin]-1′-yl)carbonyl]-1H-indol-1-yl}-N,N-diethylacetamide]: the Ki came to 1.3 nM.

In turn, `O=C1OC2(CCN(C(=O)c3cn(C(=O)N4CCCCC4)c4cc(Cl)ccc34)CC2)c2ccccc21` [Example 108, 1′-{[6-Chloro-1-(piperidin-1-ylcarbonyl)-1H-indol-3-yl]carbonyl}-3H-spiro[2-benzofuran-1,4′-piperidin]-3-one] came in with a Ki of 6.2 nM.

The molecule `CC(C)(C)OC(=O)Cn1cc(C(=O)N2CCC3(CC2)OC(=O)c2ccccc23)c2ccc(Cl)cc21` [Example 109, tert-Butyl {6-chloro-3-[(3-oxo-1′H,3H-spiro[2-benzofuran-1,4′-piperidin]-1′-yl)carbonyl]-1H-indol-1-yl}acetate] returned a Ki of 1.1 nM. This Ki lies about 5.6-fold lower than the previous one.

On to `CN(C)C(=O)Cn1cc(C(=O)N2CCC3(CC2)OC(=O)c2cc(F)ccc23)c2ccc(Cl)cc21` [Example 110, 2-{6-Chloro-3-[(5-fluoro-3-oxo-1′H,3H-spiro[2-benzofuran-1,4′-piperidin]-1′-yl)carbonyl]-1H-indol-1-yl}-N,N-dimethylacetamide], for which the Ki amounted to 0.8 nM. This Ki and that of the molecule before are within 1.5-fold of each other.

Molecule `CN(C)CCn1cc(C(=O)N2CCC3(CC2)OC(=O)c2cc(F)ccc23)c2ccc(Cl)cc21` [Example 111, 1′-({6-Chloro-1-[2-(dimethylamino)ethyl]-1H-indol-3-yl}carbonyl)-5-fluoro-3H-spiro[2-benzofuran-1,4′-piperidin]-3-one] had a Ki of 2.4 nM. Compared with the last molecule, the Ki is about 3-fold higher.

`CC(C)(C)OC(=O)Cn1cc(C(=O)N2CCC3(CC2)OC(=O)c2cc(F)ccc23)c2ccc(Cl)cc21` [Example 112, tert-Butyl {6-chloro-3-[(5-fluoro-3-oxo-1′H,3H-spiro[2-benzofuran-1,4′-piperidin]-1′-yl)carbonyl]-1H-indol-1-yl}acetate] registered a Ki of 2 nM. The Ki values of the last two molecules are within 1.5-fold of each other.

The record behind these values is patent US7332501B2, “Indol-3-yl-carbonyl-spiro-piperidine derivatives as V1a receptor antagonists” (Hoffmann-La Roche Inc., priority 2005, dated 2008).
